# Legend:
# [1] = Dissociation of FITC-RE-1 from UCP over time; type: binding; details: after 48 hr, 37° C., shaking
# Experimental: (§1) 250 μg FITC-RE-1 was thoroughly mixed with 500 μg UCN. The excess and unbound polypeptides were washed off. Then, the mixture was divided into five aliquots. The aliquots were gently shaked on a shaking table at 37° C. The amount of FITC-RE-1 dissociated in the supernatants was measured by using a fluorescence spectrophotometer at different time points (0 hr, 2 hr, 12 hr, 24 hr, and 48 hr).
# The process described above was repeated except that 50 μg FITC-RE-1 and 500 μg UCP were used. The amount of FITC-RE-1 dissociated in the supernatants was measured.
# [2] = Sedimentation / suspension time-dynamics curve of UCP (UV 500 nm); type: physicochemical; details: standing for 120 min; UCP with or without RE-1 coating
# Experimental: 3 mg of UCN was mixed with 1.5 mg of RE-1 or its analogues RE-2, RE-3, or RE-5 as well as PEG, and the binding between them was performed according to a binding method. The excess and unbound RE-1 was washed off. The resultant precipitate was resuspended in 3 mL water, sonicated for 1 min, and then placed into a UV detection cell (X72053, Alpha Laboratories Ltd, UK). Observation was made using a UV spectrophotometer (DU-640, Beckman, USA) at an absorption wavelength of 500 nm for 120 min to obtain a time-dynamics curve.
# The process described above was repeated except that 3 mg UCP and 500 μg RE-1 or its analogues RE-2, RE-3, RE-4, RE-5, RE-6, RE-7, RE-8, RE-9, or RE-10 and AP-1 were used. A time-dynamics curve was obtained.
# [3] = Binding ability of FITC-RE-1 to various inorganic nanomaterials (fluorescence spectrophotometer)
# Experimental: 10 μg of FITC-RE-1 polypeptide was incubated with 100 μL of various inorganic nanomaterials (1 mg/mL) at room temperature for 1 hr, and then centrifuged at 12000 rpm for 10 min. The resulting precipitate was washed 3 times. Then, a fluorescence spectrophotometer (RF-5301 PC, Shimadzu, Japan) was used to detect FITC (emission wavelength: 535 nm). The standard curve of fluorescence intensity vs. concentration for FITC-RE-1 was used as control, and thus the binding ability of the various inorganic nanomaterials to FITC-RE-1 polypeptide was determined. […] However, RE-1 hardly bound to non rare-earth materials, such as diamond, TiO2, SiO2, SiO3, and nano-silver (FIG. 4).
# mice liver = assay: Autophagosome formation in mice livers by transmission electron microscope; type: in vivo, Balb/c mice; details: RE-1 with UCN, PEG with UCN, AP-1 with UCP
# Experimental: Balb/c mice (purchased from SLAC Laboratory Animal (Shanghai, China), 6 weeks old, and weighed 20 g when used) were bred in a sterile housing, and then 300 μg (dosage: 15 mg/kg) UCN, UCN+PEG (containing 10 mg PEG), UCN+RE-1, UCP, UCP+RE-1, or UCP+AP-1 was injected through tail vein. An equal volume of normal saline was injected as a control. After 24 hr, the livers of the mice were removed and subjected to western blotting assay.
# The mice livers obtained as described in Example 21 were in situ fixed with 2.5% glutaral-dimethyl arsine buffer (pH 7.4) at 4° C. for 1 hr, then fixed with 2% osmium tetroxide at room temperature for 1 hr, and then dehydrated with ethanol gradients. Then, the cell samples were embedded into epoxy resin (EPON812). The embedded cell samples were cut into ultrathin slices, which were stained with uranyl acetate and lead citrate, and observed and imaged under a transmission electron microscope (JEOL-1230, JEOL, Japan).
# [4] = Dissociation of FITC-RE-1 from UCN over time; type: binding; details: after 48 h, 37° C., shaking
# Experimental: as §1
# HeLa cells = assay: Cytotoxicity of UCN or UCP with or without RE-1 (MTT, PI staining); type: cell-based; details: 10-1000 μg/mL, 24 hr, MTT and PI staining
# Experimental: MTT cell vitality assay is performed as follows: The cells to which samples have been added are cultured for 24 hr, and then 0.5 mg/mL MTT solution is added and cultured for 4 hr. The MTT solution in the well is discharged, and then 200 μL DMSO is added, followed by gently shaking the plate on a shaking table for 10 min. Detection is performed using microplate reader (ELX800, purchased from BIO-TEK) at a wavelength of 570 nm.
# PI staining assay is performed as follows: The cells to which samples have been added are cultured for 24 hr, and then to the culture Hoechst 33342 (10 mM, purchased from Sigma, USA, Catalog #: B2261) and PI (Propidium Iodide) (10 mM, purchased from Beyotime Biotechnology, Catalog #: ST511) are added for 10 min of staining. Then, the cells are detected and photographed under a fluorescence microscope (Olympus IX71, purchased from Olympus). The number of the cells counted by this assay was 500.
# HeLa cells were inoculated into a 96-well cell culturing plate at a density of about 1-2×10^4 cells/well, and cultured overnight for further use. At first, the medium was replaced with fresh DMEM medium, and then 10 μg/mL, 100 μg/mL, 250 μg/mL, 500 μg/mL, or 1000 μg/mL of UCN or UCP coated, with or without RE-1, were added, respectively. After culturing for 24 hr, MTT cell viability assay and PI staining were performed to detect the mortality of the cells.
sequence,measurement,setting,value
"ACTARSPWICG [RE-1, RE-0 with terminal amino acids A and G added]",dissociation from UCP,[1],less than 1.5%
same,suspension / sedimentation of UCP in water,[2],still in suspension
same,binding to rare-earth metal oxides and rare-earth upconversion nanophosphors,"[3]; 10 μg FITC-RE-1, 1 mg/mL material, 1 hr, most strongly Y2O3, CeO2, Yb2O3, Nd2O3, UCN, UCN-S, UCP",strongly bound
same,binding to non rare-earth materials,"[3]; diamond, TiO2, SiO2, SiO3, nano-silver, 10 μg FITC-RE-1, 1 hr",hardly bound
same,"inhibition of autophagosome formation induced by nanophosphors (UCN, UCP) in liver",mice liver,significantly inhibited
same,dissociation from UCN,[4],less than 0.7%
same,"effect of coating with RE-1 on cytotoxicity of UCN, UCP",HeLa cells,significantly reduced cytotoxicity

# Source: patent US9540418B2, “Polypeptide specifically binding to rare earth nanoparticles and use thereof” (University of Science and Technology of China, priority 2012, dated 2017)
